Laboratory results from patent publication US10588935B2, “FC receptor (FcRn) binding peptides and uses thereof” (THE BRIGHAM AND WOMEN'S HOSPITAL, INC., priority 2013, dated 2020).
Bridge positions count the residues as written; N and C are the ends. Peptide text beside a SMILES is read from it.

The compounds below were run against T1, soluble human FcRn (Homo sapiens, UniProt P55899) (assay: SPR (Biacore) affinity of peptides for immobilized soluble human FcRn). Conditions: Table 1; pH 6; shFcRn immobilized on the sensor chip; steady state fit; read-out: Kd, pH 6** Biacore.
T1 construct: Soluble human FcRn was expressed and purified by Biogen-Idec as previously described (29)
Assay type: binding
Method: SPR analyses were conducted using a Biacore 3000 or T100 instrument. Research-grade CM5 sensor chips and all coupling reagents for immobilization were purchased from Biacore. All proteins were cross-linked to the dextran surface of a CM5 sensor chip by standard amine coupling chemistry as recommended by Biacore. […] Binding experiments were performed at pH 6.0 or 7.4 using 50 mM phosphate, 100 mM sodium chloride and 0.01% surfactant P20. […] Bound albumin protein was then allowed to dissociate from the chip for 5 minutes with running buffer. Any remaining albumin was removed from the chip with a 60 second injection (2 cycles) of pH 8.0 Tris-HCl regeneration buffer (1 M Tris pH 8.0) at 25 μL/min flow rate. The binding responses recorded near the end of the association phase were plotted as a function of concentration. Equilibrium dissociation constants (KD), were derived from sensorgrams using the 1:1 binding model of BIAevaluation software 4.1.

T1 sequence (P55899 24-297 limits assumed): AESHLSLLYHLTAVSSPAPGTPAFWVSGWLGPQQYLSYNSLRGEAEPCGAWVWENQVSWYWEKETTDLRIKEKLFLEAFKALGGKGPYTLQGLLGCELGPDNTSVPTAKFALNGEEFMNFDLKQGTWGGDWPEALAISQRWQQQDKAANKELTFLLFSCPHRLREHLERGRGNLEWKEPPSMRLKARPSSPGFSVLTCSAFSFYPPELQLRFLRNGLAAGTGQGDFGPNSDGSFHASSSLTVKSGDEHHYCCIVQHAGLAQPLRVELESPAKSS
T1 sequence (P61769 21-119 partner): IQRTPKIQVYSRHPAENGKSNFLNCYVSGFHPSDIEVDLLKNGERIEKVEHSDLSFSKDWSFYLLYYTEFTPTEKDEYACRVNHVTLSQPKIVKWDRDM

Row | Compound | Kd [µM]
1 | CC(=O)N[C@@H](CCCNC(=N)N)C(=O)N[C@@H](Cc1ccc(O)cc1)C(=O)N[C@@H](Cc1ccccc1)C(=O)N[C@H]1CSSC[C@@H](C(=O)N[C@@H](CCC(=O)O)C(=O)N[C@@H](CCC(=O)O)C(=O)N[C@H](C(N)=O)C(C)C)NC(=O)[C@H](Cc2c[nH]c3ccccc23)NC(=O)CNC(=O)[C@H](Cc2c[nH]cn2)NC(=O)[C@H](CCCCN)NC(=O)[C@H](Cc2c[nH]c3ccccc23)NC(=O)[C@H](CCCCN)NC(=O)[C@H](C)NC1=O [SYN1545] (Ac-RYFCAKWKHGWCEEV-NH2; disulfide 4-12 (inferred)) | 9.3
2 | CC(=O)N[C@@H](CCCNC(=N)N)C(=O)N[C@@H](Cc1ccc(O)cc1)C(=O)N[C@@H](Cc1ccccc1)C(=O)N[C@H]1CSSC[C@@H](C(=O)N[C@@H](CCC(=O)O)C(=O)N[C@@H](CCC(=O)O)C(=O)N[C@H](C(N)=O)C(C)C)NC(=O)[C@H](Cc2c[nH]c3ccccc23)NC(=O)CNC(=O)[C@H](Cc2c[nH]cn2)NC(=O)[C@H](CCCCN)NC(=O)[C@H](C)NC(=O)[C@H](CCCCN)NC(=O)[C@H]([C@@H](C)O)NC1=O [SYN1547] (Ac-RYFCTKAKHGWCEEV-NH2; disulfide 4-12) | > 100
3 | CC(=O)N[C@@H](CCCNC(=N)N)C(=O)N[C@@H](Cc1ccc(O)cc1)C(=O)N[C@@H](Cc1ccccc1)C(=O)N[C@H]1CSSC[C@@H](C(=O)N[C@@H](CCC(=O)O)C(=O)N[C@@H](CCC(=O)O)C(=O)N[C@H](C(N)=O)C(C)C)NC(=O)[C@H](Cc2c[nH]c3ccccc23)NC(=O)CNC(=O)[C@H](Cc2c[nH]cn2)NC(=O)[C@H](C)NC(=O)[C@H](Cc2c[nH]c3ccccc23)NC(=O)[C@H](CCCCN)NC(=O)[C@H]([C@@H](C)O)NC1=O [SYN1548] (Ac-RYFCTKWAHGWCEEV-NH2; disulfide 4-12 (inferred)) | 9.3
4 | CC(=O)N[C@@H](CCCNC(=N)N)C(=O)N[C@@H](Cc1ccc(O)cc1)C(=O)N[C@@H](Cc1ccccc1)C(=O)N[C@H]1CSSC[C@@H](C(=O)N[C@@H](CCC(=O)O)C(=O)N[C@@H](CCC(=O)O)C(=O)N[C@H](C(N)=O)C(C)C)NC(=O)[C@H](C)NC(=O)CNC(=O)[C@H](Cc2c[nH]cn2)NC(=O)[C@H](CCCCN)NC(=O)[C@H](Cc2c[nH]c3ccccc23)NC(=O)[C@H](CCCCN)NC(=O)[C@H]([C@@H](C)O)NC1=O [SYN1551] (Ac-RYFCTKWKHGACEEV-NH2; disulfide 4-12) | > 200
5 | CC(=O)N[C@@H](CCCNC(=N)N)C(=O)N[C@@H](Cc1ccc(O)cc1)C(=O)N[C@@H](Cc1ccccc1)C(=O)N[C@H]1CSSC[C@@H](C(=O)N[C@@H](CCC(=O)O)C(=O)N[C@@H](CCC(=O)O)C(=O)N[C@@H](C)C(N)=O)NC(=O)[C@H](Cc2c[nH]c3ccccc23)NC(=O)CNC(=O)[C@H](Cc2c[nH]cn2)NC(=O)[C@H](CCCCN)NC(=O)[C@H](Cc2c[nH]c3ccccc23)NC(=O)[C@H](CCCCN)NC(=O)[C@H]([C@@H](C)O)NC1=O [SYN1554] (Ac-RYFCTKWKHGWCEEA-NH2; disulfide 4-12) | > 100
6 | CC(=O)N[C@@H](CCCNC(=N)N)C(=O)N[C@@H](Cc1ccc(O)cc1)C(=O)N[C@@H](Cc1ccccc1)C(=O)N[C@@H]1C(=O)N[C@@H]([C@@H](C)O)C(=O)N[C@@H](CCCCN)C(=O)N[C@@H](Cc2c[nH]c3ccccc23)C(=O)N[C@@H](CCCCN)C(=O)N[C@@H](Cc2c[nH]cn2)C(=O)NCC(=O)N[C@@H](Cc2c[nH]c3ccccc23)C(=O)N[C@H](C(=O)N[C@@H](CCC(=O)O)C(=O)N[C@@H](CCC(=O)O)C(=O)N[C@H](C(N)=O)C(C)C)CSSC1(C)C [SYN1555] | > 100
7 | CC(=O)N[C@@H](CCCNC(=N)N)C(=O)N[C@@H](Cc1ccc(O)cc1)C(=O)N[C@@H](Cc1ccccc1)C(=O)N[C@H]1CSSC(C)(C)[C@@H](C(=O)N[C@@H](CCC(=O)O)C(=O)N[C@@H](CCC(=O)O)C(=O)N[C@H](C(N)=O)C(C)C)NC(=O)[C@H](Cc2c[nH]c3ccccc23)NC(=O)CNC(=O)[C@H](Cc2c[nH]cn2)NC(=O)[C@H](CCCCN)NC(=O)[C@H](Cc2c[nH]c3ccccc23)NC(=O)[C@H](CCCCN)NC(=O)[C@H]([C@@H](C)O)NC1=O [SYN1556] | > 100
8 | CC(=O)N[C@@H](CCCNC(=N)N)C(=O)N[C@@H](Cc1ccc(O)cc1)C(=O)N[C@@H](Cc1ccccc1)C(=O)N[C@@H]1C(=O)N[C@@H]([C@@H](C)O)C(=O)N[C@@H](CCCCN)C(=O)N[C@@H](Cc2c[nH]c3ccccc23)C(=O)N[C@@H](CCCCN)C(=O)N[C@@H](Cc2c[nH]cn2)C(=O)NCC(=O)N[C@@H](Cc2c[nH]c3ccccc23)C(=O)N[C@H](C(=O)N[C@@H](CCC(=O)O)C(=O)N[C@@H](CCC(=O)O)C(=O)N[C@H](C(N)=O)C(C)C)C(C)(C)SSC1(C)C [SYN1557, Ac-RYF-Pen-TKWKHGW-Pen-EEV-CONH2] | > 100
